In one experiment the target is human FLAP (Homo sapiens (Human), UniProt P20292). The experiment in a line: FLAP binding assay (HTRF format). The settings on record: human FLAP-containing Sf-9 membranes, 25 nM HTRF ligand, 2 h; average of runs; read-out: FLAP Binding wild type HTRF Ki. How it is done: The ability of the compounds of the present invention to treat a FLAP-mediated disease and/or disorder, or associated symptoms or complications thereof, was determined using the following procedures. Binding assay data represent the average value obtained from two different assay plates, with samples run in duplicate on each plate. Human whole blood assay data represent a single replicate on an assay plate using whole blood from at least one healthy donor.
human FLAP, sequence (P20292 whole entry): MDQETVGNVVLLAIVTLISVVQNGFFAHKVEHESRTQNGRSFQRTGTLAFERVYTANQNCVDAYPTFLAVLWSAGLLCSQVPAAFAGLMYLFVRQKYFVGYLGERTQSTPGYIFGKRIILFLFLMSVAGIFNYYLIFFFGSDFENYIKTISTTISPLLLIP
The assay below is used to test the modulatory activity of compounds against FLAP. Human and mouse FLAP-encoding DNA was amplified by polymerase chain reaction and cloned into pFastBacl (Invitrogen) with a NH2-terminal 6-His tag for expression in Spodoptera frugiperda (Sf-9) cells. FLAP-containing membranes were prepared as was a FITC-labeled FLAP modulator (3-(3-(tert-butylthio)-1-(4-chlorobenzyl)-5-(quinolin-2-ylmethoxy)-1H-indol-2-yl)-2,2-dimethylpropanoic acid). The FLAP binding assay is performed in HTRF format (homogeneous time resolved fluorescence). […] The reaction is allowed to proceed for two hours after which the plate is read on an Envision plate reader in HTRF mode. Data are expressed as a HTRF ratio.
For human FLAP binding assays, data are analyzed with 3DX Explorer software. […] For analysis, data from multiple runs are averaged and each compound may be tested in 2 to 20 runs. Each run comprises two plates and each plate includes duplicates. Data from each plate is averaged and data are imported into 3DX. The data from multiple runs are aggregated as the average of duplicates of the calculated ratios in order to calculate Ki and IC50 values. Numbers in parentheses are the number of runs for the assay.
(In general: TR-FRET usually uses a lanthanide donor and a delayed reading to cut background.)

Experiment [1] has as its system leukotriene pathway in human whole blood (LTB4). The experiment in a line: Human whole blood assay (LTB4 after calcium ionophore A23187 stimulation). In kind it is cell-based. The note with it: Homo sapiens, human whole blood diluted 1:1 in RPMI, 15 min pre-incubation, A23187 7 μg/mL for 30 min at 37° Celsius. In outline:
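Heparinised human whole blood, diluted 1:1 in RPMI, was preincubated with compound for 15 min at 37° C. before stimulation with A23187 (7 μg/mL) for 30 min. Plasma LTB4 was measured by immunoassay kit and IC50 obtained by 4-parameter fit; single replicate per plate, blood from at least one donor.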

Where a name gives a salt, the structure may show the parent alone.

One may read the Ki as the dissociation constant of the complex between target and ligand, obtained from inhibition or displacement. What is called IC50 is the concentration at which inhibition is half-maximal. `Cc1ccc(Cn2c(C3[C@@H](C(=O)O)C3(C)C)nc3c(F)cc(OCc4ccc(C)cn4)cc32)cc1` (mixture of isomers) [Example 64, racemic cis-3-{4-Fluoro-1-(4-methylbenzyl)-6-[(5-methylpyridin-2-yl)methoxy]-1H-benzimidazol-2-yl}-2,2-dimethylcyclopropanecarboxylic acid as the TFA salt]: the Ki at human FLAP came to 290 nM. In experiment [1], the IC50 is 3280 nM.

Consider `Cc1ccc(COc2ccc3nc([C@H]4CCCC[C@H]4C(=O)O)n(Cc4ccc(-c5ncc(Cl)cn5)cc4)c3c2)nc1` (racemic) [Example 80, racemic cis-2-{1-[4-(5-Chloropyrimidin-2-yl)benzyl]-6-[(5-methylpyridin-2-yl)methoxy]-1H-benzimidazol-2-yl}cyclohexanecarboxylic acid], for which the inhibitory constant (Ki) at human FLAP was found to be 3.3 nM. In experiment [1], the 50% inhibitory concentration (IC50) was found to be 300 nM.

For the compound `Cn1cc(Cl)c(COc2ccc3nc([C@@H]4CCCC[C@@H]4C(=O)O)n(Cc4ccc(N5CCCCC5)cc4)c3c2)n1` (racemic) [Example 82, racemic cis-2-{6-[(4-Chloro-1-methyl-1H-pyrazol-3-yl)methoxy]-1-(4-piperidin-1-ylbenzyl)-1H-benzimidazol-2-yl}cyclohexanecarboxylic acid], on human FLAP, the Ki is 7.9 nM. Besides, in experiment [1], the IC50 was determined as 170 nM.

On to `Cn1cc(Cl)c(COc2ccc3nc([C@@H]4CCCC[C@@H]4C(=O)O)n(Cc4ccc(OC(F)(F)F)cc4F)c3c2)n1` (racemic) [Example 83, racemic cis-2-{6-[(4-Chloro-1-methyl-1H-pyrazol-3-yl)methoxy]-1-[2-fluoro-4-(trifluoromethoxy)benzyl]-1H-benzimidazol-2-yl}cyclohexanecarboxylic acid], for which the inhibition constant Ki on human FLAP was 4.2 nM. In addition, the IC50 in experiment [1] is 350 nM.

Regarding `COc1cc(OC(F)(F)F)ccc1Cn1c([C@H]2CCCC[C@H]2C(=O)O)nc2ccc(OCc3ccn(C)n3)cc21` (racemic) [Example 84, racemic cis-2-{1-[2-Methoxy-4-(trifluoromethoxy)benzyl]-6-[(1-methyl-1H-pyrazol-3-yl)methoxy]-1H-benzimidazol-2-yl}cyclohexanecarboxylic acid], the Ki at human FLAP was determined as 5.9 nM. In experiment [1], the 50% inhibitory concentration (IC50) is 190 nM.

For `Cn1cc(F)c(COc2ccc3nc([C@@H]4CCCC[C@@H]4C(=O)O)n(Cc4ccc(OC(F)(F)F)cc4F)c3c2)n1` (racemic) [Example 85, racemic cis-2-{6-[(4-Fluoro-1-methyl-1H-pyrazol-3-yl)methoxy]-1-[2-fluoro-4-(trifluoromethoxy)benzyl]-1H-benzimidazol-2-yl}cyclohexanecarboxylic acid], on human FLAP, the inhibition constant Ki turned out to be 1.4 nM. For the same compound, the IC50 in experiment [1] is 680 nM.

With `Cn1cc(Cl)c(COc2ccc3nc([C@@H]4CCCC[C@@H]4C(=O)O)n(Cc4ccc(N5CCC(F)CC5)cc4)c3c2)n1` (racemic) [Example 87, racemic cis-2-{6-[(4-Chloro-1-methyl-1H-pyrazol-3-yl)methoxy]-1-[4-(4-fluoropiperidin-1-yl)benzyl]-1H-benzimidazol-2-yl}cyclohexanecarboxylic acid], the Ki on human FLAP stood at 15 nM. The IC50 in experiment [1] worked out at 1780 nM.

Turning to `Cn1ccc(COc2ccc3nc([C@@H]4CCCC[C@@H]4C(=O)O)n(Cc4ccc(N5CC(F)(F)C5)cc4)c3c2)n1` (racemic) [Example 89, racemic cis-2-{1-[4-(3,3-Difluoroazetidin-1-yl)benzyl]-6-[(1-methyl-1H-pyrazol-3-yl)methoxy]-1H-benzimidazol-2-yl}cyclohexanecarboxylic acid], the Ki at human FLAP stood at 32 nM. In experiment [1], the IC50 stood at 3610 nM.

Take `Cn1ccc(COc2ccc3nc([C@@H]4CCCC[C@@H]4C(=O)O)n(Cc4ccc(OC(F)(F)F)cc4F)c3c2F)n1` (racemic) [Example 91, racemic cis-2-{7-Fluoro-1-[2-fluoro-4-(trifluoromethoxy)benzyl]-6-[(1-methyl-1H-pyrazol-3-yl)methoxy]-1H-benzimidazol-2-yl}cyclohexanecarboxylic acid]: the Ki at human FLAP was found to be 6.6 nM. In experiment [1], the IC50 came to 170 nM.

Regarding `Cn1ccc(COc2cc(F)c3nc([C@@H]4CCCC[C@@H]4C(=O)O)n(Cc4ccc(Br)cc4)c3c2)n1` (racemic) [Example 93, racemic cis-2-{1-(4-Bromobenzyl)-4-fluoro-6-[(1-methyl-1H-pyrazol-3-yl)methoxy]-1H-benzimidazol-2-yl}cyclohexanecarboxylic acid], the Ki at human FLAP worked out at 1.1 nM. The IC50 in experiment [1] stood at 550 nM.

Consider `Cn1ccc(COc2cc(F)c3nc([C@@H]4CCCC[C@@H]4C(=O)O)n(Cc4ccc(Br)cc4F)c3c2)n1` (racemic) [Example 94, racemic cis-2-{1-(4-Bromo-2-fluorobenzyl)-4-fluoro-6-[(1-methyl-1H-pyrazol-3-yl)methoxy]-1H-benzimidazol-2-yl}cyclohexanecarboxylic acid], for which the Ki on human FLAP came out at 2.4 nM. In experiment [1], the IC50 was 340 nM.

In the case of `Cn1ccc(COc2cc(F)c3nc([C@@H]4CCCC[C@@H]4C(=O)O)n(Cc4ccc(OC(F)(F)F)cc4)c3c2)n1` (racemic) [Example 95, racemic cis-2-{4-Fluoro-6-[(1-methyl-1H-pyrazol-3-yl)methoxy]-1-[4-(trifluoromethoxy)benzyl]-1H-benzimidazol-2-yl}cyclohexanecarboxylic acid as the HCl salt], on human FLAP, the Ki stood at 3.6 nM. Moreover, the IC50 in experiment [1] was determined as 1350 nM.

On to `Cn1ccc(COc2cc(F)c3nc([C@H]4CCCC[C@H]4C(=O)O)n(Cc4ccc(OC(F)(F)F)cc4F)c3c2)n1` (racemic) [Example 96, racemic cis-2-{4-Fluoro-1-[2-fluoro-4-(trifluoromethoxy)benzyl]-6-[(1-methyl-1H-pyrazol-3-yl)methoxy]-1H-benzimidazol-2-yl}cyclohexanecarboxylic acid as the HCl salt], for which, at human FLAP, the Ki stood at 7 nM. In experiment [1], the IC50 is 810 nM.

On to `Cc1ccc(Cn2c([C@@H]3CCCC[C@@H]3C(=O)O)nc3c(F)cc(OCc4ccn(C)n4)cc32)cc1` (racemic) [Example 97, racemic cis-2-{4-Fluoro-1-(4-methylbenzyl)-6-[(1-methyl-1H-pyrazol-3-yl)methoxy]-1H-benzimidazol-2-yl}cyclohexanecarboxylic acid as the HCl salt], for which the Ki at human FLAP was 7.5 nM. Besides, the IC50 in experiment [1] was determined as 300 nM.

`Cc1cc(OC(F)(F)F)ccc1Cn1c([C@@H]2CCCC[C@@H]2C(=O)O)nc2ccc(OCc3ccn(C)n3)cc21` (racemic) [Example 99, racemic cis-2-{6-[(1-Methyl-1H-pyrazol-3-yl)methoxy]-1-[2-methyl-4-(trifluoromethoxy)benzyl]-1H-benzimidazol-2-yl}cyclohexanecarboxylic acid]: the Ki on human FLAP amounted to 18 nM. Also, in experiment [1], the IC50 is 1060 nM.

In the case of `Cc1ccc(COc2ccc3nc([C@@H]4CCCC[C@@H]4C(=O)O)n(Cc4ccc(OC(F)(F)F)cc4C)c3c2)nc1` (racemic) [Example 100, racemic cis-2-{6-[(5-Methylpyridin-2-yl)methoxy]-1-[2-methyl-4-(trifluoromethoxy)benzyl]-1H-benzimidazol-2-yl}cyclohexanecarboxylic acid], on human FLAP, the inhibition constant (Ki) amounted to 19 nM. Moreover, the IC50 in experiment [1] stood at 2540 nM.

With `Cc1ccc(COc2ccc3nc([C@@H]4CCCC[C@@H]4C(=O)O)n(Cc4ccc(OC(F)(F)F)cc4Cl)c3c2)nc1` (racemic) [Example 101, racemic cis-2-{1-[2-Chloro-4-(trifluoromethoxy)benzyl]-6-[(5-methylpyridin-2-yl)methoxy]-1H-benzimidazol-2-yl}cyclohexanecarboxylic acid as the HCl salt], the Ki on human FLAP is 21 nM. In experiment [1], the IC50 worked out at 900 nM.

With `Cn1ccc(COc2ccc3nc([C@@H]4CCCC[C@@H]4C(=O)O)n(Cc4ccc(OC(F)(F)F)cc4Cl)c3c2)n1` (racemic) [Example 103, racemic cis-2-{1-[2-Chloro-4-(trifluoromethoxy)benzyl]-6-[(1-methyl-1H-pyrazol-3-yl)methoxy]-1H-benzimidazol-2-yl}cyclohexanecarboxylic acid as the HCl salt], the Ki at human FLAP is 30 nM. The IC50 in experiment [1] was 1010 nM.

Turning to `Cn1ccc(COc2ccc3nc([C@@H]4CCCC[C@@H]4C(=O)O)n(Cc4ccc(OC(F)(F)F)cc4Br)c3c2)n1` (racemic) [Example 104, racemic cis-2-{1-[2-Bromo-4-(trifluoromethoxy)benzyl]-6-[(1-methyl-1H-pyrazol-3-yl)methoxy]-1H-benzimidazol-2-yl}cyclohexanecarboxylic acid as the HCl salt], at human FLAP, the Ki amounted to 30 nM. Moreover, the IC50 in experiment [1] stood at 690 nM.

For the origin of these results see patent US8952177B2 (Janssen Pharmaceutica NV, priority 2013, dated 2015).
